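Interpolation was linear, between the two tested concentrations surrounding the appropriate level; five concentrations were tested over 48 hours in 96-well plates. TGI: total growth inhibition.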
How the values were obtained:
Assay in all cases: growth of human tumour cells (NCI), 48 h
BT-549 breast = tested on: BT-549 breast
SW-620 colon = tested on: SW-620 colon
MOLT-4 leukemia = tested on: MOLT-4 leukemia
SN12C renal = tested on: SN12C renal
SF-295 CNS = tested on: SF-295 CNS
NCI-H23 lung = tested on: NCI-H23 lung
PC-3 prostate = tested on: PC-3 prostate
T-47D breast = tested on: T-47D breast
HS 578T breast = tested on: HS 578T breast
A549 NSCLC = tested on: A549 NSCLC
HT29 colon = tested on: HT29 colon
HOP-62 NSCLC = tested on: HOP-62 NSCLC
HCT-116 colon = tested on: HCT-116 colon
NCI-H226 lung = tested on: NCI-H226 lung
CCRF-CEM leukemia = tested on: CCRF-CEM leukemia

Compound | TGI (BT-549 breast) [µM] | TGI (SW-620 colon) [µM] | TGI (MOLT-4 leukemia) [µM] | TGI (SN12C renal) [µM] | TGI (SF-295 CNS) [µM] | TGI (NCI-H23 lung) [µM] | TGI (PC-3 prostate) [µM] | TGI (T-47D breast) [µM] | TGI (HS 578T breast) [µM] | TGI (A549 NSCLC) [µM] | TGI (HT29 colon) [µM] | TGI (HOP-62 NSCLC) [µM] | TGI (HCT-116 colon) [µM] | TGI (NCI-H226 lung) [µM] | TGI (CCRF-CEM leukemia) [µM]
COc1cc2c(OC)c3cc(C)oc(=O)c3c(O)c2c(O)c1-c1c(OC)cc2c(OC)c3cc(C)oc(=O)c3c(O)c2c1O | 68.5 | > 100 | 31.8 | 45.2 | 39.7 | 32.5 | 33 | > 100 | > 100 | 38.9 | 55.3 | 30.1 | 28 | 38.2 | 39.3
Cc1ccc(NC(=O)C23CC4CC(CC(C4)C2)C3)c(C(=O)NNC(=O)c2ccc(Cl)cc2)c1 | > 100 | > 100 | 62.3 | > 100 | 66.5 | 38.8 | 69.5 | > 100 | 33.8 | 46 | 72.9 | 49.6 | > 100 | 62.6 | 55.2
Cc1ccc(S(=O)(=O)NN=C2C(C)CC(C(C)(C)C)CC2C)cc1 (stereo not given) | 35.5 | 40.6 | 43 | 32.7 | 33.1 | 56.5 | 37.9 | 50.7 | > 100 | 32.7 | 32.8 | 31.6 | 34.1 | 34.5 | 41.8
Cc1cc(C)c2c(=O)cc(-c3ccccc3)[nH]c2c1 | 54.2 | > 100 | > 100 | > 65.3 | 17.9 | 16.5 | > 93.2 | > 76.2 | 21.2 | 29.1 | 27.1 | 23.7 | 15.8 | 48.9 | > 100
CCOC(=O)C(=NN(C)c1ncccc1N)C(=O)OCC | > 100 | 70.3 | 53.7 | 64.5 | > 100 | > 100 | > 100 | 62.7 | > 100 | > 100 | > 100 | > 100 | 65.4 | 47.6 | > 100
CCOc1ccc(-n2c(=O)c3nn4c(=O)n(-c5ccc(OCC)cc5)c(=O)c4nn3c2=O)cc1 | > 100 | > 100 | > 100 | > 100 | > 100 | > 100 | > 100 | > 100 | > 100 | > 100 | > 100 | > 100 | > 100 | > 100 | 
Brc1ccc(N=C/C=C(\Nc2ccc(Br)cc2)C23CC4CC(CC(C4)C2)C3)cc1 | 49.7 | 92.1 | > 72.8 | > 64.2 | > 92 | > 65.8 | 41 | 43.9 | > 67.4 | > 100 | > 61.6 | 43.6 | 23.8 | > 100 | 4.5
COc1cc(Br)cc2c1O[C@H]1C(=O)CC3CC21CCN3C (stereo not given in full) | > 100 | > 100 | 61.6 |  | > 100 | 68.2 | > 100 | 74 | > 100 | > 100 | > 100 | > 100 | > 100 |  | 43.9
Cc1nn(C(=O)c2ccc(Cl)cc2)c2c1C(c1ccccc1)SC(N)=N2 (stereo not given) | > 10 | > 10 | > 10 | > 10 | > 10 | > 10 | > 10 | > 10 | > 10 | > 10 | > 10 | > 10 | > 10 | > 10 | > 10
N=C(N)SCCSC(=N)N | > 100 | > 100 | > 100 | > 100 | > 100 | > 100 | > 100 | > 100 | > 100 | > 100 | > 100 | > 100 | > 100 | > 100 | 
CCc1nc2c(n1CC)C(=O)c1ccccc1C2=O | > 100 | > 100 | > 100 | > 100 | > 100 | > 100 | 63.7 | 57 | > 100 | > 100 | 63.9 | > 100 | > 10 | > 100 | > 100
COc1ccc(-c2nc(SCC(=O)N/N=C/c3ccc([N+](=O)[O-])cc3)[nH]c2-c2ccc(OC)cc2)cc1 | 51.3 | > 65.7 | 42.1 | 46.6 | > 69 | 85.6 | > 100 | > 100 | 76.3 | > 100 | 26.9 | > 100 | 37.3 |  | > 22.1
Clc1ccc(-c2cn3c(nc4ccccc43)c(/C=C/c3cccs3)n2)cc1 | > 100 | > 100 |  | > 100 |  | > 100 | > 100 | > 100 | > 100 | > 100 | > 100 | > 100 | > 100 | > 100 | > 100
Cc1cc(N(C)C)ccc1N=Nc1ccc2ncccc2c1 | > 100 | > 100 | > 100 | > 100 | > 100 | > 100 | > 100 | > 100 | > 100 | > 100 | > 100 |  | > 100 | > 100 | > 100
COc1ccc2cc(NC(=O)Nn3cnnc3)ccc2c1 | > 100 | > 100 | > 100 |  | > 100 | > 100 | > 100 | > 100 | > 100 | > 100 | > 100 | > 100 | > 100 | > 100 | > 100
CNc1cccc(-c2cc(=O)c3cc4c(cc3[nH]2)OCO4)c1 | > 100 | > 100 | > 20.9 | > 42.8 | > 22.9 | 7.28 | > 100 | > 100 | 8.96 | > 91.8 | 2.71 |  | > 100 | 8.71 | 11
O=C(Nn1c(-c2ccccc2)nc2ccccc2c1=O)c1ccc([N+](=O)[O-])cc1 | > 100 | > 100 | > 100 | > 100 | > 100 | > 100 | > 100 | > 100 | > 100 | > 100 | > 100 | > 100 |  | > 100 | > 100
Oc1c(Nc2ccccc2)cc2c3c1N=NC=3CCN=2 | > 100 | > 100 | 87.3 | > 100 | > 100 | > 100 | > 100 | > 100 | > 100 | > 100 | > 100 | > 100 | 44.4 |  | 93.9
CC(C)(C)OC(=O)CCC1NC(=O)[C@@H]2Cc3c([nH]c4ccccc34)C(c3ccccc3)N2C1=O (stereo not given in full) | 64.4 | > 100 | > 100 | 53.1 | 37.8 | 79.6 | 52.9 | > 100 | 58.3 | > 100 | 56 | 51.2 | 42.7 | 86.8 | 
CN(NC(=O)c1ccc(Cl)cc1)C1=NCCCCN1 | > 100 | > 100 | > 100 |  | > 100 | > 100 | > 100 | > 100 | > 100 | > 100 | > 100 | > 100 | > 100 | > 100 | > 100
C/C(CC(O)(C(F)(F)Cl)C(F)(F)Cl)=N\Nc1ccccc1 | > 100 | > 100 | 84.2 |  | > 100 | 50 | 78.9 | > 100 | 66.2 | > 100 | > 100 |  | > 100 | 89.1 | > 100
Cc1ccc(C)n1-n1c(Cc2ccc(Cl)cc2)n[nH]c1=O | > 100 | > 100 | > 100 | > 100 | > 100 |  | > 100 | > 100 | > 100 | > 100 | > 100 | > 100 | > 100 | > 100 | > 100
CCOC(=O)c1ccc(N(C)Cc2cnc3nc(N)nc(N)c3n2)cc1 | > 100 | > 100 | > 100 | > 100 | > 100 | > 100 | 88.4 | 79.7 | 73.1 |  | > 100 | 54.7 | > 100 | 41.8 | > 100
COCN1C(=O)[C@@H]2CCCN2C(=O)c2ccc(Cl)cc21 | > 100 | > 100 | > 100 | > 100 | > 100 | > 100 | > 100 | > 100 | > 100 | > 100 | > 100 | > 100 | > 100 | > 100 | 
[N-]=[N+]=NCC(=O)c1c[nH]c(=O)[nH]c1=O | > 100 | > 100 |  | > 100 | > 100 | > 100 | > 100 | > 100 | > 100 | > 100 | > 100 | > 100 | > 100 | > 100 | > 100

Reference: PubChem BioAssay (NCI)
